The values that follow come from US9023767B2, “γ-Secretase substrates and methods of use” (Memorial Sloan-Kettering Cancer Center, priority 2009, dated 2015).

Like-named read-outs stand apart in the source and are kept apart here.

The target of test [1] is γ-secretase (Mus musculus (Mouse), UniProt P49769). Description: Cell-based activity assay, N2A cells stably over-expressing APP. How it is done: (§1) The potency of two structurally different GSIs was assayed in four unique γ-secretase activity assays. IC50 values were determined from the dose response curves using a non-linear regression analysis in the Prism software. An in vitro assay was based on the one previously reported by Li et al. (2000), except we utilized Sb4 substrate that eliminated the need for biotinylated antibody. The cell-based activity assay used N2A mouse neuroblastoma cells stably over-expressing APP and a biotinylated 4G8 antibody that binds the C-terminus of the amyloid beta peptide. The exo-cell assay incubated HeLa cells simultaneously with GSI, Sb4 substrate as well as 0.25% CHAPSO detergent prior to detecting substrate cleavage. Finally, the extended exo-cell assay first incubated HeLa cells with GSI for 24 hrs. Subsequently, the cells were washed 1× in PBS and then incubated with Sb4 substrate and CHAPSO detergent. The assay was then carried out exactly as described for the original exo-cell method. All assays incorporate ruthenylated G2-10* antibody to detect 40-site cleavage of APP or recombinant Sb4 substrate and quantitated activity by measuring ECL. The latter assays were performed as previously described (Li et al., 2000). In the in vitro assay, recombinant Sb4 substrate was incubated for 2.5 hours at 37° C. in pH 7.0 PIPES buffer in the presence of 0.25% CHAPSO detergent and solubilized γ-secretase at a final concentration of 40 ng/ul. The detection of cleaved substrate was determined using ruthenylated G2-10* antibody. Since the Sb4 substrate is biotinylated additional 6E10 biotinylated antibody used in earlier assays is not required. In the cell-based assay, N2A mouse neuroblastoma cells that stably overexpress amyloid precursor protein were incubated with γ-secretase inhibitors in a final concentration of 1% DMSO for 24 hrs. Following incubation, the supernatant was removed from the cells and assayed for Aβ40, the cleaved APP product, using ruthenylated G2-10* antibody as well as biotinylated 4G8 antibody.

Test [2] addresses γ-secretase (Homo sapiens (Human), UniProt P49768). Description: Exo-cell γ-secretase assay, HeLa cells, Sb4 substrate. The class given is cell-based. How it is done: Therefore, HeLa cells were first incubated with Sb4 substrate, as well as CHAPSO detergent as depicted in FIG. 14c. Cells were seeded at their indicated concentration in 96-well plates and allowed to attach overnight. The next day, media was removed and cells were washed once with PBS. Fresh media was then added containing 0.25% CHAPSO detergent, Sb4 substrate to a final concentration of 1 μM, and 1% DMSO or γ-secretase inhibitor. This was incubated for 2.5 hours at 37° C. Media was removed and cell debris was pelleted from this media for 5 min. at 3,500 rpm. Supernatant was then added to ruthenylated G2-10* antibody that recognizes cleaved product, but not uncleaved substrate. This was incubated for an additional 2 hours at room temperature. Finally, magnetic streptavidin beads were added to a final concentration of 80 μg/ml and incubated for 30 min. at room temperature. Assay buffer was added to the samples and γ-secretase-mediated cleavage of substrate was monitored using electrochemiluminescence (ECL) (Li et al., 2000). (FIG. 14c).
as §1

Test [3] addresses γ-secretase (Homo sapiens (Human), UniProt P49768+Q92542). The experiment in a line: Photoaffinity labeling of γ-secretase in HeLa membrane by Aβ17-23BPA20-biotin. In kind it is binding. The following applies: inhibitor at 2 μM. How it is done:
FIG. 4. […] Various concentrations of inhibitor were incubated with APP substrate (S4) or Notch peptide substrate containing the C-terminal biotinylated transmembrane domain of Notch1 and HeLa cell membrane in the presence of 0.25% CHAPSO. Aβ40 was detected by G2-10 antibody. The cleaved Notch product was detected by Val1744 antibody that specifically recognizes the cleaved product between Gly1743 and Val1744. Activities are expressed as percentage relative to reading that was produced in DMSO control. […] Various concentrations of S4 substrate were incubated with HeLa membrane in fixed concentrations of inhibitor as indicated. The double reciprocal velocity (1/v) and substrate concentrations (1/S) are plotted to determine the type of inhibition. […] Assays were conducted as described in FIG. 4A. […] The labeled samples were solubilized with RIPA buffer. Biotinylated proteins were captured with streptavidin-agarose and probed by immunoblotting using antibodies against biotin, PS1-CTF, PS1-NTF, Nicastrin, PEN-2 and APH-1a. HeLa cell membrane proteins were directly loaded onto lanes indicated by an arrow in the PEN-2 and APH-1a blots as positive controls. […] Upper panel: PS1-NTF; Lower panel: PS1-CTF.
The labeled proteins were eluted with 2×SDS sample buffer and analyzed with Western blotting using antibodies against the components of γ-secretase complex. Protein concentration was determined with the Dc protein assay kit (Bio-Rad)
After the photolyzed membranes were solubilized, biotinylated proteins were captured, eluted and analyzed by western blotting with antibodies against biotin, PS1, nicastrin, PEN-2 and APH-1.

Another test deals with A20 mouse lymphoma cells. Description: Lymphoma cell proliferation assay, [3H]thymidine incorporation. The class given is cell-based. The following applies: 48 hours. How it is done: For a lymphoma cell proliferation assay, A20 mouse lymphoma cells were seeded in a 96-well plate at a concentration of 5×10^5 cells/ml in 100 μl RPMI media containing 2% fetal bovine serum. An additional 100 μl of media containing DMSO or γ-secretase inhibitor was added and incubated for 48 hours at 37° C. After this incubation, the cells were incubated for 5 hours with 2 μCi/ml [^3H]thymidine at 37° C. Proliferative response was then evaluated by harvesting the tritiated DNA from cells using a Skatron cell harvester and proliferation assessed as a function of [^3H]thymidine incorporation measured on a β-counter.
In general terms: Dividing cells build labelled thymidine or BrdU into new DNA.

Usually IC50 stands for the concentration that gives 50% inhibition. As for `CC(NC(=O)Cc1cc(F)cc(F)c1)C(=O)NC1N=C(c2ccccc2)c2ccccc2N(C)C1=O` (stereo not shown) [Compound E], the IC50 was 4.6 nM on γ-secretase [1] (24 hrs, Aβ40; read-out: Cell-based (nM), IC50); 4.6 nM at γ-secretase [1] (read-out: Cell-based (nM), IC50; 24 hrs, Aβ40); 3.8 nM at γ-secretase [2] (ECL detection, read-out: Exo-Cell (nM), IC50); 5.4 nM at γ-secretase [2] (IC50, exo-cell assay, HTRF detection); 3.8 nM at γ-secretase [2] (read-out: Exo-Cell (nM), IC50, ECL detection). On γ-secretase [3], the “block of photo-crosslinking of PS1-CTF and PS1-NTF by Aβ17-23BPA20-biotin” value was “completely blocked”. For the same compound, the “inhibition of cellular proliferation” value in the test on A20 mouse lymphoma cells is recorded as “able to inhibit cellular proliferation”.
